The values that follow come from ChEMBL document CHEMBL6127148, “Discovery of l-Lysine Dioxalate (LH1513) as a Novel Inhibitor of Calcium Oxalate Crystallization for Hyperoxaluria” (ACS Med Chem Lett, 2024).

Activity calls are given as the source filed them. The rule behind the calls is not given here.

The subject of data set [1] is Calcium oxalate. Put plainly: Inhibition of calcium oxalate crystallization in supersaturated solution of CaOx containing of 250 uM of CaCl2 and 250 uM of Na2C2O4 incubated for 72 hrs at pH 6.8 HEPES buffer by fluorescence-based assay.
For data set [2], the system named is Calcium oxalate. Put plainly: Inhibition of calcium oxalate crystallization in supersaturated solution of CaOx containing of 1 mM of CaCl2 and 250 uM of Na2C2O4 incubated for 72 hrs at pH 6.8 HEPES buffer by spectrophotometric method.
The test system of data set [3] is Calcium oxalate. Put plainly: Inhibition of calcium oxalate crystallization in COM (100) face assessed as platy morphology at EC50 concentration by scanning electron microscopic analysis.
Data set [4] has as its system Calcium oxalate. In words: Inhibition of calcium oxalate crystallization in COM (100) face assessed as crystals flattened at the apexes at EC50 concentration by scanning electron microscopic analysis.
Data set [5] relates to Calcium oxalate. In words: Inhibition of calcium oxalate crystallization in COM (010) face assessed as growth on the (121-) steps at EC50 concentration incubated for 20 min by atomic force microscopic analysis.
The test system of data set [6] is Calcium oxalate. In words: Inhibition of calcium oxalate crystallization in COM (100) face assessed as twinned with monoclinic morphology at EC50 concentration by scanning electron microscopic analysis.
Data set [7] can be described thus: Oral bioavailability in Agxt-knockout C57BL/6 mouse assessed as LH1513 level in plasma at 150 micromol/kg administered as triester prodrug and measured after 4 hrs. It is filed as ADME, organism-based. The conditions noted are these: in vivo, at 150 µmol/kg.
Data set [8] is described as follows: Drug metabolism in Agxt-knockout C57BL/6 mouse assessed as LH1513 concentration in urine at 150 micromol/kg, po administered as triester prodrug and measured after 8 hrs. In kind it is ADME, organism-based. Conditions: in vivo, dose 150 µmol/kg, read-out: Ct.
Another data set concerns Mus musculus. Put plainly: Anti-hyperoxaluria Agxt-knockout C57BL/6 mouse model of hyperoxaluria assessed as decrease in CaOx crystals in urine at 150 micromol/kg, po administered as triester prodrug for 6 weeks by light microscopic analysis. It is filed as functional, organism-based. The conditions noted are these: dose 150.0 µmol/kg.
The nature of data set [9]: Drug excretion in Agxt-knockout C57BL/6 mouse urine at 150 micromol/kg, po measured after 8 hrs. In kind it is ADME, organism-based. The conditions noted are these: in vivo, dose 150 µmol/kg.

For the molecule `O=C([O-])CC(O)(CC(=O)[O-])C(=O)[O-].[Na+].[Na+].[Na+]` [SODIUM CITRATE], the concentration for a half-maximal effect (EC50) with Calcium oxalate [1] was 2500 µM; with Calcium oxalate [2], 665 µM. Further, the inhibition result with Calcium oxalate [3] and in the data set with Calcium oxalate [4] was “Active” each time.
On to `O=C(O)C(=O)NCCNC(=O)C(=O)O`, for which, in the data set with Calcium oxalate [1], the EC50 worked out at 37.9 µM.
On the same count and under the same terms, in the case of `NCCNC(=O)C(=O)O` it was 112 µM.
On to `O=C([O-])C(=O)NCCCC[C@H](NC(=O)C(=O)[O-])C(=O)[O-].[Na+].[Na+].[Na+]`, for which the inhibition result in the data set on Calcium oxalate [5] and in the data set on Calcium oxalate [6] was “Active” each time. Besides, the results for the EC50 with Calcium oxalate [1] and with Calcium oxalate [2] were 21.7 µM and 63.8 µM, respectively. In data set [7], the F came to 3%. Further, the concentration in data set [8] was roughly 30 µM. Besides, in the data set on Mus musculus, the result was Active. In data set [9], the Drug excretion entry is “Active”.
For `CC(=O)C(=O)O` [PYRUVATE SODIUM], the EC50 in the data set on Calcium oxalate [1] stood at 98.3 µM; in the data set on Calcium oxalate [2], 386 µM.

By EC50 is commonly meant the concentration at which the effect is half-maximal.
